pIC50: −log10 of the molar value. Like-named read-outs stand apart in the source and are kept apart here.
Experiments:
Assay type in all cases: biochemical
Zap-70 = biological target: T1, Zap-70 (Homo sapiens, UniProt P43403); assay: Kinase inhibition assay (33P transfer), Zap-70; details: read-out: Zap-1
T1 construct: Kinases are expressed as either kinase domains or full length constructs; made in house
T1 sequence (P43403 1-619): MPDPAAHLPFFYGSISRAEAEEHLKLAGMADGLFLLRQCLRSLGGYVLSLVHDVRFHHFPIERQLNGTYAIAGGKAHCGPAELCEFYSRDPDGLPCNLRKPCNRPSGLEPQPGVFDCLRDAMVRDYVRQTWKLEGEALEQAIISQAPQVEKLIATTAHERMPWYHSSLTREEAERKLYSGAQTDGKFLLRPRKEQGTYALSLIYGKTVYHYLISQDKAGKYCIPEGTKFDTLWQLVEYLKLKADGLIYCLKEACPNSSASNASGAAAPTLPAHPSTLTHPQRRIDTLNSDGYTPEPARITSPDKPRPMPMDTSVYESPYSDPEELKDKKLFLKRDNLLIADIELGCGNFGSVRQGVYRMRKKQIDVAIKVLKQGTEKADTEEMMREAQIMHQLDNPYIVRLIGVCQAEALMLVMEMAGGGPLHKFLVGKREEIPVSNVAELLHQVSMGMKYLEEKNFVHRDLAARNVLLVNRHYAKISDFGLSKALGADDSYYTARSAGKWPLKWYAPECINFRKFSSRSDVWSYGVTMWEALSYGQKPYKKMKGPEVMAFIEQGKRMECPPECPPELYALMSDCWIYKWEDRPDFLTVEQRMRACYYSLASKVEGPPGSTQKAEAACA
Method in brief: (§1)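 Kinase domain or full-length constructs, GST- or polyHis-tagged, expressed in E. coli or baculovirus-High Five cells, sometimes with regulatory polypeptides. Activity measured as 33PO4 transfer from ATP to plate-bound poly(Glu,Tyr) 4:1 or poly(Arg,Ser) 3:1; after incubation, plates washed with 0.5% phosphoric acid and counted by liquid scintillation.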

Itk = biological target: T2, Itk (Homo sapiens, UniProt Q08881); assay: Kinase inhibition assay (33P transfer), Itk; details: read-out: Itk-1
T2 construct: Kinases are expressed as either kinase domains or full length constructs; made in house
T2 sequence (Q08881 1-620): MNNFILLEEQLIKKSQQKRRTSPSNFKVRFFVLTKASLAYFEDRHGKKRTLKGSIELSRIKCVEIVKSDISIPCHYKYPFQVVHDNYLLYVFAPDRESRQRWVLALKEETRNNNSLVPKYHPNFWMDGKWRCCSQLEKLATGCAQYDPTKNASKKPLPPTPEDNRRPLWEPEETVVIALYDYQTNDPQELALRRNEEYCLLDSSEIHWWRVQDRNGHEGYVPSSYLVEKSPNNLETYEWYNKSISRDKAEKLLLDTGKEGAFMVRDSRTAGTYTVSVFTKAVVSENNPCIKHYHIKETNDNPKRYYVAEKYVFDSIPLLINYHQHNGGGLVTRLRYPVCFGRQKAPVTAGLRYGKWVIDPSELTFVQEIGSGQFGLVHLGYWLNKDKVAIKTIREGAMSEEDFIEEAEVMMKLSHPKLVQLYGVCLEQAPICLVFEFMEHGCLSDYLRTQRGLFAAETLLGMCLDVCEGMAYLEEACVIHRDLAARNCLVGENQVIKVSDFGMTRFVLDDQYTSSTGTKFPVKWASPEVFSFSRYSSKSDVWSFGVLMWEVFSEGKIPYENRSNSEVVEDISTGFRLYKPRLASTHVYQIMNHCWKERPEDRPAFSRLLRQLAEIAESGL
Method in brief: (§2)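 Activity read as 33P incorporation from ATP into poly(Glu,Tyr) 4:1 or poly(Arg,Ser) 3:1 substrate bound to microtiter plates, measured by scintillation after acid washing. Enzymes were affinity-purified GST or polyHis fusions (kinase domain or full length) from E. coli or baculovirus; IC50 = 50% reduction in labelled phosphate.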

c-Met = biological target: T3, c-Met (Homo sapiens, UniProt P08581); assay: Kinase inhibition assay (33P transfer), c-Met; details: Table 2, kinase inhibition class; read-out: Met-1
T3 construct: Kinases are expressed as either kinase domains or full length constructs; made in house
Method in brief: as §2

PDGFRB = biological target: T4, PDGFRB (Homo sapiens, UniProt P09619); assay: Kinase inhibition assay (33P transfer), PDGFRB; details: read-out: PDGFRB-1
T4 construct: Kinases are expressed as either kinase domains or full length constructs; made in house

AKT = biological target: T5, AKT (Homo sapiens, UniProt Q9Y243); assay: Kinase inhibition assay (33P transfer), AKT; details: Table 2, kinase inhibition class; read-out: AKT3-1
T5 construct: Kinases are expressed as either kinase domains or full length constructs; made in house
Method in brief: as §1

Lck = biological target: T6, Lck (Homo sapiens, UniProt P06239); assay: Kinase inhibition assay (33P transfer), Lck; details: read-out: Lck-1
T6 construct: Kinases are expressed as either kinase domains or full length constructs; made in house
Method in brief: as §1

ErbB2 = biological target: T7, ErbB2 (Homo sapiens, UniProt P04626); assay: Kinase inhibition assay (33P transfer), ErbB2; details: read-out: ErbB2-2
T7 construct: Kinases are expressed as either kinase domains or full length constructs; made in house
Method in brief: as §2

Kdr = biological target: T8, Kdr (Homo sapiens, UniProt P35968); assay: Kinase inhibition assay (33P transfer), Kdr
T8 construct: Kinases are expressed as either kinase domains or full length constructs; made in house
Method in brief: as §1

IGFR-1 = biological target: T9, IGFR-1 (Homo sapiens, UniProt P08069); assay: Kinase inhibition assay, IGFR-1 (Table 2); details: Table 2, kinase inhibition class
T9 construct: Kinases are expressed as either kinase domains or full length constructs; made in house

EGFR = biological target: T10, EGFR (Homo sapiens, UniProt P00533); assay: Kinase inhibition assay (33P transfer), EGFR; details: Table 2, kinase inhibition class; read-out: EGFR-1
T10 construct: Kinases are expressed as either kinase domains or full length constructs; made in house
Method in brief: as §2

T9 sequence (P08069 31-1367): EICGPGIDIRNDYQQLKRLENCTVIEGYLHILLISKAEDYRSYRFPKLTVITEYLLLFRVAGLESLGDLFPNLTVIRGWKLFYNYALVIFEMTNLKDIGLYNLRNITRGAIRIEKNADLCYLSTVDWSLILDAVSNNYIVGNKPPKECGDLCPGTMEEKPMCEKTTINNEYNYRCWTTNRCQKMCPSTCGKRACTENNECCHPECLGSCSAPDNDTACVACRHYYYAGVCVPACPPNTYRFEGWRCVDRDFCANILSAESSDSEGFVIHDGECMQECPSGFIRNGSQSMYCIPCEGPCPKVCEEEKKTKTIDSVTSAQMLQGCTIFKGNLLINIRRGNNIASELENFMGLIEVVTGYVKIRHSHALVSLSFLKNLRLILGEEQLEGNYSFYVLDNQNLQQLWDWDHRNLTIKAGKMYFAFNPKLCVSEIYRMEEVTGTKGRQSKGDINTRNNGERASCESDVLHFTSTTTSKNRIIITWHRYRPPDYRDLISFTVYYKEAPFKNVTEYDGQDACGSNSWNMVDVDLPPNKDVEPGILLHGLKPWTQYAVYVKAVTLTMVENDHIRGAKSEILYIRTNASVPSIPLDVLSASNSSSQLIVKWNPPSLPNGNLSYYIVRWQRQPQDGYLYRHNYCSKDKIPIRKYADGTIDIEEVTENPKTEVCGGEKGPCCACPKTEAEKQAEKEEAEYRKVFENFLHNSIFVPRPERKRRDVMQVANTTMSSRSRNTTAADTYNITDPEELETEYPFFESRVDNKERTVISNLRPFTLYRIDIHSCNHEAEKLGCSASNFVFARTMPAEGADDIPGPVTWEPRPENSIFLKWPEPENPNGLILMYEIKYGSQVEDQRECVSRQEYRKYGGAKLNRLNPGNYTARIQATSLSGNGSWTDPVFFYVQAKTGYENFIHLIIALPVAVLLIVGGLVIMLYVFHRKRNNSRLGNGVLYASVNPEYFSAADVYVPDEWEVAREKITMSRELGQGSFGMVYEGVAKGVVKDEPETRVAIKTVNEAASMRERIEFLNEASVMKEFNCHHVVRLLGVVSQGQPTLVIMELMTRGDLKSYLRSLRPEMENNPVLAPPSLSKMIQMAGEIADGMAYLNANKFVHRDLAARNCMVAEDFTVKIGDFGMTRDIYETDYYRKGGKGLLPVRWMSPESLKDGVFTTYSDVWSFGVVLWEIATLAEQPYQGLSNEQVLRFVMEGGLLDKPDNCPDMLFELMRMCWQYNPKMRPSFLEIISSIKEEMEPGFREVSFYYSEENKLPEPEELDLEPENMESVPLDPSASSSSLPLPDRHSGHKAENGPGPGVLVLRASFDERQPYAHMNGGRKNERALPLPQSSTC
T4 sequence (P09619 33-1106, species assumed): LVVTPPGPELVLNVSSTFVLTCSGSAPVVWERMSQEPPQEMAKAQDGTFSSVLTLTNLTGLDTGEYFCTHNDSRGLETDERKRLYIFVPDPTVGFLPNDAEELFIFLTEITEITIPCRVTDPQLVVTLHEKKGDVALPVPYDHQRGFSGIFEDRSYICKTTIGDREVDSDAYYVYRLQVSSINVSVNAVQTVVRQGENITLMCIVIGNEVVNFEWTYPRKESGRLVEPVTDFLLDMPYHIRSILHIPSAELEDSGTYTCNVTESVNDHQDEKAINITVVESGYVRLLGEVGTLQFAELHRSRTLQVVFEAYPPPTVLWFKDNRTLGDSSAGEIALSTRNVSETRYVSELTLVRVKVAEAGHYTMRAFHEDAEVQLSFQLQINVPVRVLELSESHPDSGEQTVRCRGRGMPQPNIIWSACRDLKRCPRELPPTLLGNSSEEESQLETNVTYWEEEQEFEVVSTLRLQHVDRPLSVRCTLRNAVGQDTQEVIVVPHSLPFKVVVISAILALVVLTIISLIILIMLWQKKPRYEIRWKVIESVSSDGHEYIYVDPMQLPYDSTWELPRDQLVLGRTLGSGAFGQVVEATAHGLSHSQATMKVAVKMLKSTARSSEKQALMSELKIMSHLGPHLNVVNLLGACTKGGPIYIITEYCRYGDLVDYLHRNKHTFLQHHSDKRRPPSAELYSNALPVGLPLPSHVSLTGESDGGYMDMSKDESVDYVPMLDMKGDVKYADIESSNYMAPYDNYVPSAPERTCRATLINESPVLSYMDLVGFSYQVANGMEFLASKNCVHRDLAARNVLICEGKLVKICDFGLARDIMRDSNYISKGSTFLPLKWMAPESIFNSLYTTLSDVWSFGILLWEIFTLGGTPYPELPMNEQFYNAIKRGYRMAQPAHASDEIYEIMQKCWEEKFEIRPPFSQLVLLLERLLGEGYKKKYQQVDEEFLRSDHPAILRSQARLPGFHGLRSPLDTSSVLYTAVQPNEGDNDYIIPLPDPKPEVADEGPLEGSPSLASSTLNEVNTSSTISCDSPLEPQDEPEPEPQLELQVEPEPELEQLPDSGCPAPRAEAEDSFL
T10 sequence (P00533 25-1210, species assumed): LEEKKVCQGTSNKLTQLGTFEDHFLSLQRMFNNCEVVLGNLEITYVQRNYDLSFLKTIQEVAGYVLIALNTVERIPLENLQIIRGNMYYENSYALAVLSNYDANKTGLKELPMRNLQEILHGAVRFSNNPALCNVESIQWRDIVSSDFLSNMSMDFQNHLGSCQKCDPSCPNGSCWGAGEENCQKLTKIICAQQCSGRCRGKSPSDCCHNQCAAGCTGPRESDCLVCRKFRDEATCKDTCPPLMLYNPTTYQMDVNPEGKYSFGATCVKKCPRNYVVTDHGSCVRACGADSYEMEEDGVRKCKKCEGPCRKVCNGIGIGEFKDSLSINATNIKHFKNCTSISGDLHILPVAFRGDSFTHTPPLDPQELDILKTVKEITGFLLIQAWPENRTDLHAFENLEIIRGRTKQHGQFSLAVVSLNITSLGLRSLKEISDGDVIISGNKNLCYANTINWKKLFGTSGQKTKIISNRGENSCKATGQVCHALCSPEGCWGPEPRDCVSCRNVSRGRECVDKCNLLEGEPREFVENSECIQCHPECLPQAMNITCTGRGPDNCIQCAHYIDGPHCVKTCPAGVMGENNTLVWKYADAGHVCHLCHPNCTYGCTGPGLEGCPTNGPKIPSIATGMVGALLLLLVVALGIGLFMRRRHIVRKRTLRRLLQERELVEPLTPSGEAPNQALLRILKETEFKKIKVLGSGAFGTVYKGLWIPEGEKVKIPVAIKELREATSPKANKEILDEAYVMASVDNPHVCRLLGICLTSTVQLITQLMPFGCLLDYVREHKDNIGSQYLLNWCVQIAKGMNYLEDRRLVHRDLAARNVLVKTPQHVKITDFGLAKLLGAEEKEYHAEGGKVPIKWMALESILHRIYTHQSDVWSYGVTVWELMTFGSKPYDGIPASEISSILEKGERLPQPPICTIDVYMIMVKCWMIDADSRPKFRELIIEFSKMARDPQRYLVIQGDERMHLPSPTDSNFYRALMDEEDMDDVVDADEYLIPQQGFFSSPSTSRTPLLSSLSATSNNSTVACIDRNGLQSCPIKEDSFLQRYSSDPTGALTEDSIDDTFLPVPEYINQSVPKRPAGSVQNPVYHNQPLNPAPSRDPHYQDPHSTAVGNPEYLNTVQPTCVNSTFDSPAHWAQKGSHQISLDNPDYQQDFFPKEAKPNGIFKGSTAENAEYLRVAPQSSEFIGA
T6 sequence (P06239 whole entry, species assumed, the tested form may be a part): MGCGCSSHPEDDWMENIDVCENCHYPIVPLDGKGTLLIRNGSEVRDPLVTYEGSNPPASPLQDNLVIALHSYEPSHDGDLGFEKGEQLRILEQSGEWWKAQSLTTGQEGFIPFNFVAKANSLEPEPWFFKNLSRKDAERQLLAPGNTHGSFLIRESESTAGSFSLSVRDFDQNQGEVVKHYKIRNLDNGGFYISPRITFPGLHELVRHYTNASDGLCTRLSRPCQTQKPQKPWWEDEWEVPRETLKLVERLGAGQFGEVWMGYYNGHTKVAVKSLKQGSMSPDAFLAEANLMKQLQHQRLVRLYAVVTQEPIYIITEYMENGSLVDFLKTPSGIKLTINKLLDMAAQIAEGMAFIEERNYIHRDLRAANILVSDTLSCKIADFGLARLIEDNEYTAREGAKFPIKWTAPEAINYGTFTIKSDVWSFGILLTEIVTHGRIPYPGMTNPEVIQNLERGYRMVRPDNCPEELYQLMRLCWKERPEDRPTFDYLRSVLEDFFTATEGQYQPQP
T5 sequence (Q9Y243 whole entry, the tested form may be a part): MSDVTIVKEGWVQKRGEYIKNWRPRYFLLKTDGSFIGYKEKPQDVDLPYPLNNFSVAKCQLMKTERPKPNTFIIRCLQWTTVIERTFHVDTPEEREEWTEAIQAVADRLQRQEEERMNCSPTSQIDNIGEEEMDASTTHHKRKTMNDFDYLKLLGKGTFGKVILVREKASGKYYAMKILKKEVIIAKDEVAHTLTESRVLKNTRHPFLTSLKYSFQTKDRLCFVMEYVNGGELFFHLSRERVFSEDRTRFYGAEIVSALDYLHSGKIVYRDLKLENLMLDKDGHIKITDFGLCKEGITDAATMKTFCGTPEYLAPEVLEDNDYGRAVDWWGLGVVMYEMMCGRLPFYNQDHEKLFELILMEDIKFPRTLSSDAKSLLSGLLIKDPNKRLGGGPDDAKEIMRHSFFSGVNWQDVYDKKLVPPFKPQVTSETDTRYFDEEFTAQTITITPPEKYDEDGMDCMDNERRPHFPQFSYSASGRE

Row | Compound | pIC50 (Zap-70) | pIC50 (Itk) | pIC50 (c-Met) | pIC50 (PDGFRB) | pIC50 (AKT) | pIC50 (Lck) | pIC50 (ErbB2) | pIC50 (Kdr; read-out: KDR-1) | pIC50 (IGFR-1) | pIC50 (EGFR) | pIC50 (Kdr; KDR-1)
1 | COc1cc(Nc2ncnc(Nc3ccc4c(cnn4C)c3)n2)cc(OC)c1OC [Compound 557] | < 4.96 | 4.96 to 5.07 | < 4.96 | > 6.01 | < 4.96 | > 6.01 | > 6.01 | 5.23 to 6.01 | > 6.01 | 5.23 to 6.01 | –
2 | COc1ccc(Nc2nc3ccccc3n2-c2ncnc(Nc3cc(OC)c(OC)c(OC)c3)n2)c(C)c1 [Compound 558] | 5.17 to 5.33 | < 5.06 | 5.17 to 5.33 | 5.33 to 6.11 | < 5.06 | 5.17 to 5.33 | 5.06 to 5.17 | > 6.11 | < 5.06 | < 5.06 | –
3 | COc1cc(Nc2ncnc(-n3c(NCc4ccc(O)cc4)nc4ccccc43)n2)cc(OC)c1OC [Compound 561] | < 5.05 | < 5.05 | < 5.05 | > 6.10 | < 5.05 | > 6.10 | < 5.05 | – | < 5.05 | < 5.05 | > 6.10
4 | COc1cc(Nc2ncnc(Nc3cc(OC)c(OCCN4CCOCC4)c(OC)c3)n2)cc(OC)c1OC [Compound 562] | < 5.08 | < 5.08 | < 5.08 | 5.19 to 5.35 | < 5.08 | > 6.13 | 5.19 to 5.35 | 5.19 to 5.35 | 5.19 to 5.35 | > 6.13 | –
5 | COc1cc(Nc2ncnc(NC3CC3c3ccccc3)n2)cc(OC)c1OCCN1CCOCC1 (centres unmarked) [Compound 563] | < 5.04 | < 5.04 | 5.15 to 5.31 | 5.31 to 6.09 | < 5.04 | > 6.09 | 5.31 to 6.09 | 5.31 to 6.09 | 5.31 to 6.09 | > 6.09 | –
6 | COc1cc(Nc2ncnc(-c3cccnc3NCc3ccc(F)cc3)n2)cc(OC)c1OCCN1CCOCC1 [Compound 564] | < 5.10 | < 5.10 | < 5.10 | > 6.15 | < 5.10 | > 6.15 | < 5.10 | > 6.15 | < 5.10 | 5.21 to 5.37 | –
7 | COc1cc(Nc2ncnc(-c3cccnc3Cl)n2)cc(OC)c1OCCN1CCOCC1 [Compound 565] | < 5.02 | < 5.02 | < 5.02 | 5.29 to 6.07 | < 5.02 | 5.29 to 6.07 | < 5.02 | 5.13 to 5.29 | < 5.02 | < 5.02 | –
8 | COc1cc(Nc2ncnc(N(C)c3ccc4c(cnn4Cc4ccccc4)c3)n2)cc(OC)c1OC [Compound 566] | < 5.04 | < 5.04 | 5.32 to 6.09 | 5.32 to 6.09 | < 5.04 | > 6.09 | > 6.09 | > 6.09 | 5.04 to 5.15 | > 6.09 | –
9 | COc1ccc(Nc2ncnc(N3CCCc4ccc(C)cc43)n2)cc1OC [Compound 567] | < 4.92 | < 4.92 | 5.20 to 5.97 | 5.20 to 5.97 | < 4.92 | 5.20 to 5.97 | 5.03 to 5.20 | > 5.97 | < 4.92 | > 5.97 | –
10 | COc1cc(Nc2ncnc(-n3c(NC(C)(C)c4ccccc4)nc4ccccc43)n2)cc(OC)c1OC [Compound 569] | < 5.06 | < 5.06 | < 5.06 | > 6.11 | < 5.06 | > 6.11 | < 5.06 | > 6.11 | < 5.06 | < 5.06 | –
11 | COc1cc(Nc2ncnc(-n3c(NCc4ccc(OC(F)(F)F)cc4)nc4ccccc43)n2)cc(OC)c1OC [Compound 571] | < 5.10 | < 5.10 | 5.10 to 5.21 | < 5.10 | < 5.10 | < 5.10 | 5.21 to 5.37 | < 5.10 | < 5.10 | < 5.10 | –
12 | COc1cc(Nc2ncnc(-n3c(NCc4cccc([N+](=O)[O-])c4)nc4ccccc43)n2)cc(OC)c1OC [Compound 572] | < 5.07 | < 5.07 | 5.07 to 5.18 | > 6.12 | < 5.07 | 5.34 to 6.12 | 5.07 to 5.18 | > 6.12 | < 5.07 | < 5.07 | –
13 | NC(=O)Cc1ccc(Nc2ncnc(Nc3cc(-c4ccccc4)n[nH]3)n2)cc1 [Compound 573] | 5.04 to 5.21 | 5.21 to 5.98 | 5.21 to 5.98 | 5.21 to 5.98 | 5.04 to 5.21 | > 5.98 | 5.04 to 5.21 | > 5.98 | > 5.98 | 5.21 to 5.98 | –
14 | C=CCNc1nc2ccccc2n1-c1ncnc(Nc2cc(OC)c(OC)c(OC)c2)n1 [Compound 574] | < 4.98 | < 4.98 | < 4.98 | > 6.03 | < 4.98 | > 6.03 | < 4.98 | > 6.03 | 5.26 to 6.03 | < 4.98 | –

Reference: US7074789B2, “Kinase inhibitors” (Amgen Inc., priority 1999, dated 2006)
